Assay [1] concerns Agrobacterium tumefaciens. In words: Antibacterial activity against Agrobacterium tumefaciens A 281 after 48 hrs by serial dilution technique. The note with it: A 281, 48 h. The format is functional.
The test system of assay [2] is Pseudomonas tolaasii. The assay is described as follows: Antibacterial activity against Pseudomonas tolaasii after 48 hrs by serial dilution technique. The format is functional.
The subject of assay [3] is Micrococcus luteus. In words: Antibacterial activity against Micrococcus luteus clinical isolate after 48 hrs by serial dilution technique. The format is functional.
The subject of assay [4] is Proteus mirabilis. In words: Antibacterial activity against Proteus mirabilis clinical isolate after 48 hrs by serial dilution technique. The format is functional, organism-based.
Assay [5] deals with Escherichia coli. The assay is described as follows: Antibacterial activity against Escherichia coli ATCC 35218 after 48 hrs by serial dilution technique. The note with it: ATCC 35218, 48 h. The class given is functional.
The subject of assay [6] is Pseudomonas aeruginosa. In words: Antibacterial activity against Pseudomonas aeruginosa clinical isolate after 48 hrs by serial dilution technique. The class given is functional.
Assay [7] relates to Salmonella enterica. In words: Antibacterial activity against Salmonella enteritidis ATCC 13076 after 48 hrs by serial dilution technique. The format is functional, Salmonella enterica subsp. enterica serovar Enteritidis. The conditions noted are these: ATCC 13076, 48 h.
Assay [8] deals with Bacillus cereus. The assay is described as follows: Antibacterial activity against Bacillus cereus clinical isolate after 48 hrs by serial dilution technique. The class given is functional.
Assay [9] deals with Staphylococcus aureus. The assay is described as follows: Antibacterial activity against Staphylococcus aureus ATCC 6538 after 48 hrs by serial dilution technique. The note with it: ATCC 6538, 48 h. The class given is functional.
Assay [10] relates to Micrococcus luteus. In words: Antibacterial activity against Sarcina lutea ATCC 9341 after 48 hrs by serial dilution technique. The note with it: ATCC 9341, 48 h. The class given is functional.
In assay [11] the test system is SF-268. In words: Cytotoxicity against human SF268 cells after 48 hrs by SRB assay. The note with it: SF-268, 48 h. The class given is functional. (Sulforhodamine B stains cellular protein and so reports cell mass.)
Assay [12] has as its system MCF7. In words: Cytotoxicity against human MCF7 cells at 100 uM after 48 hrs by SRB assay. The class given is functional, cell-based.
Assay [13] relates to NCI-H460. In words: Cytotoxicity against human H460 cells at 100 uM after 48 hrs by SRB assay. The format is functional, cell-based.
For assay [14], the system named is SF-268. The assay is described as follows: Cytotoxicity against human SF268 at 100 uM cells after 48 hrs by SRB assay. The class given is functional, cell-based.
For assay [15], the system named is MCF7. In words: Cytotoxicity against human MCF7 cells after 48 hrs by SRB assay. The format is functional. The conditions noted are these: MCF7, 48 h.
The test system of assay [16] is NCI-H460. The assay is described as follows: Cytotoxicity against human H460 cells after 48 hrs by SRB assay. The note with it: NCI-H460, 48 h. The format is functional.
Assay [17] deals with Candida albicans. In words: Antifungal activity against Candida albicans clinical isolate after 48 hrs by serial dilution technique. The format is functional.

As usually defined, the MIC is the lowest concentration found to suppress growth. A word on the GI50: it is the concentration that inhibits growth by half. What is called LC50 is the concentration lethal to half of the exposed cells or organisms. A word on the TGI: it is the concentration giving total growth inhibition.

Molecules are shown by their SMILES. In brackets after ≈: the same amount, converted by molar mass. Activity calls are given as the source filed them. No cut-off for these calls is given here.

On to `C=C1C(=O)O[C@H]2/C=C(\C)[C@@H](O)CC[C@@]3(C)O[C@@H]3[C@H](O)[C@H]12`, for which the MIC in assay [1] is 25 µg/mL (≈ 89.2 µM); in assay [2] it was 25 µg/mL (≈ 89.2 µM); in assay [3], 12.5 µg/mL (≈ 44.6 µM); in assay [5], 25 µg/mL (≈ 89.2 µM); in assay [6], 50 µg/mL (≈ 178 µM); in [7] it was 25 µg/mL (≈ 89.2 µM). Besides, the MIC in [8] worked out at 12.5 µg/mL (≈ 44.6 µM); in [9], 1.25 µg/mL (≈ 4.46 µM); in assay [10], 6.25 µg/mL (≈ 22.3 µM). Besides, the MIC result in assay [4] is “inactive”.
The molecule `C=C1C(=O)O[C@H]2C[C@@]3(C)[C@H](O)CC[C@@](C)(O)[C@@H]3[C@@H](O)[C@H]12` returned a GI50 in assay [11] of 40.3 µM. Also, the MIC was found to be 25 µg/mL (≈ 88.5 µM) in assay [1]; 25 µg/mL (≈ 88.5 µM) in assay [2]; 12.5 µg/mL (≈ 44.3 µM) in assay [3]; 25 µg/mL (≈ 88.5 µM) in assay [5]; 50 µg/mL (≈ 177 µM) in assay [6]; 25 µg/mL (≈ 88.5 µM) in assay [7]. Further, the MIC in assay [8] was 12.5 µg/mL (≈ 44.3 µM); in assay [9], 1.25 µg/mL (≈ 4.43 µM); in [10], 6.25 µg/mL (≈ 22.1 µM). Moreover, the GI50 entry in assay [12] and in assay [13] was “inactive” each time. Besides, the LC50 result in assay [12], in [13] and in assay [14] was “inactive” each time. In addition, the TGI entry in [12], in assay [13] and in assay [14] was “inactive” in each case. The MIC entry in assay [4] was “inactive”.
As to `C=C1C(=O)O[C@H]2C[C@@]3(C)[C@H](O)CCC(=C)[C@@H]3[C@@H](O)[C@H]12`, the GI50 in assay [11] stood at 42.7 µM; in assay [15], 52.3 µM; in [16] it was 69 µM. Also, the LC50 in assay [15] is 85.8 µM. In [15], total growth inhibition (TGI) required 64.2 µM. Besides, the MIC amounted to 25 µg/mL (≈ 94.6 µM) in [1]; 25 µg/mL (≈ 94.6 µM) in assay [2]; 6.25 µg/mL (≈ 23.6 µM) in [3]; 25 µg/mL (≈ 94.6 µM) in assay [5]; 25 µg/mL (≈ 94.6 µM) in assay [6]; 25 µg/mL (≈ 94.6 µM) in [7]. The MIC in assay [17] is 25 µg/mL (≈ 94.6 µM); in assay [8], 6.25 µg/mL (≈ 23.6 µM); in [9], 0.625 µg/mL (≈ 2.36 µM); in [10], 6.25 µg/mL (≈ 23.6 µM). The LC50 entry in assay [13] and in [14] was “inactive” each time. Also, the TGI result in assay [13] and in [14] was “inactive” throughout. For the same molecule, the MIC result in assay [4] was “inactive”.
For the molecule `C=C1C(=O)O[C@H]2C[C@]3(C)[C@H](O)CCC(=C)[C@@H]3[C@@H](O)[C@H]12` [ANTHEMIN B], in assay [11], the GI50 is 52.3 µM and net growth stopped (TGI) at 80.3 µM. In [12], the GI50 result is “inactive”, the LC50 result was “inactive” and the TGI result is “inactive”. Moreover, in [13], the GI50 entry was “inactive”, the LC50 result was “inactive” and the TGI result was “inactive”. For the same molecule, the LC50 result in [14] is “inactive”.
In the case of `C=C1C[C@@H]2OC(=O)C(=C)[C@H]2[C@@H](O)/C=C(\C)CCC1=O` [ANTHEMIN C], the MIC in assay [3] was 12.5 µg/mL (≈ 47.7 µM); in [8], 12.5 µg/mL (≈ 47.7 µM); in assay [9], 1.25 µg/mL (≈ 4.77 µM); in assay [10], 25 µg/mL (≈ 95.3 µM). In [4], the MIC result was “inactive”.
Regarding `c1ccc(-c2ccc(C(c3ccccc3)n3ccnc3)cc2)cc1` (centres undefined) [BIFONAZOLE], in assay [4], the MIC entry is “inactive”. For the same molecule, in assay [17], the MIC is 200 µg/mL (≈ 644 µM).
Molecule `C=C1C(=O)O[C@H]2C[C@@]3(C)[C@H](C(=C)CC[C@@H]3O)[C@@H](O)[C@H]12` [ELEGALACTONE A] showed a GI50 in assay [11] of 76 µM. Besides, the GI50 result in [12] and in [13] was “inactive” in each case. Moreover, the LC50 result in [12], in [13] and in assay [14] was “inactive” throughout. In addition, the TGI entry in assay [12], in assay [13] and in assay [14] was “inactive” in each case. Also, the MIC in assay [3] and in assay [9] was 50 µg/mL (≈ 189 µM) throughout. In assay [4], the MIC entry is “inactive”.
Turning to `CN[C@@H]1[C@H](O[C@H]2[C@H](O[C@H]3[C@H](O)[C@@H](O)[C@H](N=C(N)N)[C@@H](O)[C@@H]3N=C(N)N)O[C@@H](C)[C@]2(O)C=O)O[C@@H](CO)[C@H](O)[C@H]1O` [STREPTOMYCIN], the MIC in assay [1] turned out to be 100 µg/mL (≈ 172 µM); in [2], 200 µg/mL (≈ 344 µM); in assay [3], 50 µg/mL (≈ 86 µM); in assay [5] it was 100 µg/mL (≈ 172 µM); in assay [7], 200 µg/mL (≈ 344 µM); in [8], 50 µg/mL (≈ 86 µM). In addition, the MIC in assay [10] stood at 50 µg/mL (≈ 86 µM). The MIC result in [4] is “inactive”.
With `C=C1C(=O)O[C@H]2/C=C(\C)[C@@H](O)CC/C(C)=C/[C@@H](O)[C@H]12` [TATRIDIN A], the MIC in assay [1] was 25 µg/mL (≈ 94.6 µM); in assay [2], 25 µg/mL (≈ 94.6 µM); in assay [3] it was 6.25 µg/mL (≈ 23.6 µM); in assay [5], 25 µg/mL (≈ 94.6 µM); in [6], 25 µg/mL (≈ 94.6 µM); in assay [7], 25 µg/mL (≈ 94.6 µM). Moreover, the MIC stood at 25 µg/mL (≈ 94.6 µM) in assay [17], 6.25 µg/mL (≈ 23.6 µM) in [8], 0.625 µg/mL (≈ 2.36 µM) in [9] and 6.25 µg/mL (≈ 23.6 µM) in [10]. Further, in assay [4], the MIC result is “inactive”.
Regarding `C=C1C(=O)O[C@H]2CC(=C)[C@@H](O)CC/C(C)=C/[C@@H](O)[C@H]12` [TATRIDIN B], the MIC turned out to be 25 µg/mL (≈ 94.6 µM) in assay [1]; 25 µg/mL (≈ 94.6 µM) in assay [2]; 6.25 µg/mL (≈ 23.6 µM) in assay [3]; 25 µg/mL (≈ 94.6 µM) in [5]; 25 µg/mL (≈ 94.6 µM) in [6]; 25 µg/mL (≈ 94.6 µM) in assay [7]. The MIC in [17] stood at 25 µg/mL (≈ 94.6 µM); in [8], 6.25 µg/mL (≈ 23.6 µM); in assay [9] it was 0.625 µg/mL (≈ 2.36 µM); in assay [10], 6.25 µg/mL (≈ 23.6 µM). Moreover, the MIC entry in [4] was “inactive”.
As for `CC[C@]1(O)C[C@@H]2CN(CCc3c([nH]c4ccccc34)[C@@](C(=O)OC)(c3cc4c(cc3OC)N(C)[C@H]3[C@@](O)(C(=O)OC)[C@H](OC(C)=O)[C@]5(CC)C=CCN6CC[C@]43[C@@H]65)C2)C1` [VINBLASTINE], the GI50 in assay [11], in assay [15] and in [16] was under 0.01 µM in each case. Further, the TGI is 1.64 µM in [11], 1.6 µM in [15] and 0.35 µM in assay [16]. Moreover, in [11] (read-out: LC50 (the source's name)), the CC50 was found to be 2.48 µM.

The values above are taken from ChEMBL document CHEMBL1154913, “Sesquiterpene lactones from Anthemis melanolepis and their antibacterial and cytotoxic activities. Prediction of their pharmacokinetic profile” (2010).
